Results: patent publication US20200254065A1, “LONG-ACTING GLP-2 ANALOGS” (OPKO Biologics Ltd., priority 2019, published 2020)
Entries after “also recorded” stand apart in the source; their conditions may differ. Square brackets hold non-standard residues; d marks the D form. Peptide text beside a SMILES is read from it. Nle = CCCC[C@H](N)C(=O)O

Key:
[1] = Pharmacokinetics of modified GLP-2 variants in rats; type: in vivo; details: rat, serum, peptide dose 15 mg/kg
[2] = PK after single SC injection in rats (LC-MS/MS); details: rat, in vivo, 2 mg/kg
Procedure: To support the pharmacodynamic effects of V4 and Cys-FMS-V4 as detailed in Example 9, a pharmacokinetic analysis was also conducted. In this study (Study reference 15204), all animals were injected SC on Day 1 with 2 mg/kg peptide content of V4, Cys-FMS-V4 and Apraglutide. Blood samples were collected at 2, 8, 12, 24, 36, 48, 72, 96, 120 hours, and Days 7, 8, 9, 10, 11, 12, 13 and 14 post-dose administration and subsequently taken to LC-MS/MS analysis to determine plasma levels of each compound. For Cys-FMS-V4, a 2-analyte method was applied to determine the plasma concentrations of both the full conjugate and the V4 that was hydrolyzed from it (V4 hydrolyzed). Plasma concentrations (μM), as measured by using the LC-MS/MS method, of V4 peptide, Cys-FMS-V4, hydrolyzed V4, and Apraglutide are presented in FIG. 17.

[3] = Stability of GLP-2 analogues on incubation at 37° C. (appearance, O.D. reading, RP-HPLC); type: physicochemical; details: following 48 h incubation at 37° C.
Procedure: The GLP-2 analogues were tested for stability via appearance, O.D. reading (A.280, and A.325) and RP-HPLC (purity, and peak area) following t=0, 1 day, and 48 h incubation at 37° C.

[4] = Solubility and stability in different buffer systems, concentrations, incubation and freeze-thaw; type: physicochemical; details: Histidine and NaPi, pH 6.8 to 7.5; 1-10 mg/mL; up to 3 days at 37° C.; up to three freeze-thaw cycles
[5] = PK after single IV injection in rats; type: in vivo; details: rat, in vivo, iv, 2 mg/kg
Excerpt: Blood samples were collected at 0.5, 2, 4, 8, 12, 24, 36, 48, 72, 96- and 120-hours post-dose administration.

[6] = 2-compartmental pharmacokinetic modelling (MONOLIX 2018R2); type: in vivo, rat; details: rat, in vivo
Procedure: An in-depth PK modeling was performed to address the unexpected differences in half life, distribution, and pharmacological effect between V4, Cys-FMS-V4, and Apraglutide in the rat model. The analysis was performed with MONOLIX 2018R2 suite using a 2-compartmental pharmacokinetic model. The data used in this analysis was comprised from 3 independent experiments (data is presented as their average). The concentration versus time data of V4 that was formed from the Cys-FMS-V4 conjugate (the hydrolyzed peptide) was described appropriately using the values of the pharmacokinetic parameters of V4 peptide. Thus, the disposition of the hydrolyzed V4 was identical to that of the V4 peptide following the IV and SC administration.
The pharmacokinetics of Apraglutide in our studies was determined after SC administration. […] Based on this assumption, the values of volumes of distribution and clearance (Vpept, Vss, Vbeta, and CL) were calculated for Apraglutide (Table 13). The values of the other parameters of Apraglutide in Table 14 (the rate constants and the half-lives) are not dependent on this assumption.

[7] = test system: intestine epithelium (crypts plus villi); assay: Crypts plus villi length, histopathology of small intestine; type: in vivo, SD rats
Procedure: In addition to PEG30-FMS-V4 and PEG30-Fmoc-V4 that have been pharmacology evaluated by small intestinal weight evaluation (As shown in Example 5), four other reversible PEGylated variant 4 (“V4”) conjugates and two reversible linker-V4 conjugates were synthesized. All the above were injected to 6 normal SD rats/group once at 2 mg/kg (peptide dose), while on the 6th day, animals were scarified, and the small intestine was weighted followed by histopathology evaluation. […] Therefore, slices from three areas of the intestine (duodenum, jejunum and ilium) were stained with hematoxylin and eosin and at least 7 Crypts+Villi length/slice were measured. The averaged Villi+Crypt length of each treatment group (n=6) was compared to the vehicle group (negative control) and calculated as percentage increase over vehicle. […]
An additional study to evaluate the efficacy and the longevity of V4 and Cys-FMS-V4 was conducted (Study reference 15204) in which the animals were sacrificed on Days 6 (N=6), 10 (N=4) and 14 (N=4). This experiment measured the pharmacological response compared to the commercially approved SBS treatment drug Gattex. In addition, two new conjugates were tested by conjugating V4 to reduced OSu-linker and Cys-FMS-V4 purified from resin. The animals were injected with a single SC injection at Day 1 with 2 mg/kg peptide content of V4, Cys-FMS-V4, FMS-OSu-V4, Apraglutide and Glepaglutide while Gattex was SC injected daily at 2.5 mg/kg peptide content. […]

half-life [1]: 17.5 h
AUC(0-inf) [2]: 14.6 µM·h
AUC(0-t) [2]: 13.7 µM·h
CL/F [2]: 0.617 mL/min/kg
Cmax [2]: 0.49 µM
Time post injection up to which detectable in blood [2]: ≤ 240 h
Tmax [2]: 12 h
Vd/F [2]: 4.07 L/kg
half-life [2]: 77 h
Solubility via appearance [3]: V4: clear
CMC perspective, combining purity and solubility [4]: outperformed the rest of the peptides
AUC(0-inf) [5]: 36.2 µM·h
AUC(0-t) [5]: 33.7 µM·h
Cl/F_obs [5]: 0.015 (μmol/kg)/(μmol/L)/h
Cmax [5]: 7.1 µM
Tmax [5]: 0.5 h
Vz/F_obs [5]: 0.068 (μmol/kg)/(μmol/L)
half-life [5]: 3.2 h
Fold increase of Vbeta as compared to the initial volume of distribution [6]: ~51 fold
Fold increase of Vss as compared to the initial volume of distribution [6]: ~8 fold
Ratio (V4/Apraglutide) of CL [6]: 0.96
Ratio (V4/Apraglutide) of Fpept [6]: 0.54
Ratio (V4/Apraglutide) of Vbeta [6]: 1.52
Ratio (V4/Apraglutide) of Vpept [6]: 0.40
Ratio (V4/Apraglutide) of Vss [6]: 1.68
Ratio (V4/Apraglutide) of k12 [6]: 11.60
Ratio (V4/Apraglutide) of k21 [6]: 1.54
Ratio (V4/Apraglutide) of ka—pept [6]: 0.44
Ratio (V4/Apraglutide) of kpepte [6]: 2.40
Ratio (V4/Apraglutide) of t1/2 absorption [6]: 2.28
Ratio (V4/Apraglutide) of t1/2 alpha [6]: 0.17
Ratio (V4/Apraglutide) of t1/2 beta [6]: 1.57
k12 [6]: 0.0749 h⁻¹
k21 [6]: 0.0105 h⁻¹
ka—pept [6]: 0.0729 h⁻¹
kpepte [6]: 0.205 h⁻¹
t1/2 beta [6]: 173.2 h
bioavailability ([6]; Bioavailability lower in comparison to Apraglutide): 46%
Bioavailability following SC injection (reaching the systemic circulation) ([6]; sc): 40.1%
CL ([6]; sc): 0.215 mL/min/kg
Fpept ([6]; sc): 0.401
Local degradation of the dose at the injection site ([6]; sc): ~60%
Vd ([6]; sc): 3.21 L/kg
Vpept ([6]; sc): 0.0627 L/kg
Vss ([6]; sc): 0.51 L/kg
t1/2 absorption ([6]; sc): 9.51 h
bioavailability ([6]; sc, Bioavailability following SC injection (reaching the systemic circulation)): ~40%
half-life ([6]; sc, t1/2 absorption): 9.51 h
half-life ([6]; t1/2 alpha): 1.29 h
half-life ([6]; t1/2 beta): 173 h
Compound: CCCC[C@H](NC(=O)[C@H](CCC(=O)O)NC(=O)[C@H](CC(=O)O)NC(=O)[C@H](CO)NC(=O)[C@H](Cc1ccccc1)NC(=O)[C@H](CO)NC(=O)CNC(=O)[C@H](CCC(=O)O)NC(=O)CNC(=O)[C@@H](N)Cc1c[nH]cn1)C(=O)N[C@@H](CC(N)=O)C(=O)N[C@H](C(=O)N[C@H](C(=O)N[C@@H](CC(C)C)C(=O)N[C@@H](CC(=O)O)C(=O)N[C@@H](CC(C)C)C(=O)N[C@@H](CC(C)C)C(=O)N[C@@H](C)C(=O)N[C@@H](C)C(=O)N[C@@H](CCCNC(=N)N)C(=O)N[C@@H](CC(=O)O)C(=O)N[C@@H](Cc1ccccc1)C(=O)N[C@H](C(=O)N[C@@H](CC(N)=O)C(=O)N[C@@H](Cc1c[nH]c2ccccc12)C(=O)N[C@@H](CC(C)C)C(=O)N[C@H](C(=O)N[C@@H](CCC(N)=O)C(=O)N[C@H](C(=O)N[C@@H](CCCCN)C(=O)N[C@H](C(=O)N[C@H](C(=O)N[C@@H](CC(=O)O)C(N)=O)[C@@H](C)O)[C@@H](C)CC)[C@@H](C)O)[C@@H](C)CC)[C@@H](C)CC)[C@@H](C)CC)[C@@H](C)O [Variant 4] (H-HGEGSFSDE[Nle]NTILDLLAARDFINWLIQTKITD-NH2)
Detectability in blood after IV administration [5]: could not be detected 24 hours post injection
Percent increase of Crypts+Villi length over vehicle (FIG. 3) ([7]; Study 15201, 0.5 and 2 mg/kg peptide dose once, 6 days after injection): dose dependent pharmacology effect on the intestine epithelium
Crypts plus villi length percent increase over vehicle (FIG. 13) ([7]; Study 15203, single SC 2 mg/kg on Day 1, Days 6 and 10, listed as V4, 2 mg/kg): the most pronounced effect on crypts plus villi length over vehicle compared to Apraglutide and Glepaglutide; also recorded: prolonged activity 10 days following a single SC injection
Crypts plus villi length percent increase over vehicle (FIG. 14) ([7]; Study 15204, single SC 2 mg/kg on Day 1, Days 6, 10 and 14): the most prominent and prolonged effect on villi and crypts length up to 14 days from injection
Villi plus crypts length percent increase over vehicle (FIG. 16) ([7]; Study 15205, single SC 0.5, 2.0 or 8.0 mg/kg, Days 3, 7 and 14): comparable intestinotrophic response on villi and crypt length at all three dose levels
